Results: ChEMBL document CHEMBL1151666, “Novel Zaragozic Acids from Leptodontidium elatius” (J Nat Prod, 1996)

How the values were obtained:
Squalene synthase [1] = molecular target: T1, Squalene synthase (Homo sapiens, UniProt P37268); test: Inhibition of squalene synthase
T1 sequence (P37268 whole entry): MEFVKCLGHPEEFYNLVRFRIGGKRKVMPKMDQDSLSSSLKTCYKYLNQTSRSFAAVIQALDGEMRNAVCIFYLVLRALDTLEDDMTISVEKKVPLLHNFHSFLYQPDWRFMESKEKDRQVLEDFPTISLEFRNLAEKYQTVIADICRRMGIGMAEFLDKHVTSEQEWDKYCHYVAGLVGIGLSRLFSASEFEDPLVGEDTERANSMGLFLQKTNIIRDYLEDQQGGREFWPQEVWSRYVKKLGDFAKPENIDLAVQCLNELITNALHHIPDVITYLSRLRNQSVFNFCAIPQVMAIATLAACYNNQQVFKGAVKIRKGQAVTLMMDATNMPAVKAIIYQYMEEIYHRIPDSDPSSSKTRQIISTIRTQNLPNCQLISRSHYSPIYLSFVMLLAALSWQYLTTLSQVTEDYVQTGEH

Squalene synthase [2] = molecular target: T2, Squalene synthase (Rattus norvegicus, UniProt Q02769); test: Inhibition of rat squalene synthase
T2 sequence (Q02769 whole entry): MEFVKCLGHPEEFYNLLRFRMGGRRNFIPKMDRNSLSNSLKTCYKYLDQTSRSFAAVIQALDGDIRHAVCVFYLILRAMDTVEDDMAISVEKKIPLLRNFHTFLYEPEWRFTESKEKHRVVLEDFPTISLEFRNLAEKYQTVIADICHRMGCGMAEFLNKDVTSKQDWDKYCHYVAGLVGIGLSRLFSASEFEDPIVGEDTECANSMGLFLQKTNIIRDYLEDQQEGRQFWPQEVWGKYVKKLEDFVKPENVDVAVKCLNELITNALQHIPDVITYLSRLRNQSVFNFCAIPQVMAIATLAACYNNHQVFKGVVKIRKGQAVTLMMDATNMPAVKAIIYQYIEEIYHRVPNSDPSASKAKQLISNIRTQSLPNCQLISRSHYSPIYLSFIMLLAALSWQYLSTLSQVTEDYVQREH

Row | IC50 (Squalene synthase [1]) [nM] | Ki (Squalene synthase [2]) [nM] | Compound
1 | 2 | – | CCCCCCC[C@@H](CCC[C@]12O[C@H](C(=O)O)[C@@](O)(C(=O)O)[C@](C(=O)O)(O1)[C@H](OC(=O)CC/C=C/[C@@H](C)CCCc1ccccc1)[C@H]2O)OC(C)=O [ZARAGOZIC ACID F]
2 | 0.2 | – | C[C@@H](CCCC[C@]12O[C@H](C(=O)O)[C@@](O)(C(=O)O)[C@](C(=O)O)(O1)[C@H](OC(=O)CC/C=C/[C@@H](C)CCCc1ccccc1)[C@H]2O)Cc1ccccc1
3 | 0.3 | 0.045 | CC(=O)O[C@H](CCC[C@]12O[C@H](C(=O)O)[C@@](O)(C(=O)O)[C@](C(=O)O)(O1)[C@H](OC(=O)CC/C=C/[C@H](C)CCCc1ccccc1)[C@H]2O)[C@H](C)Cc1ccccc1 [ZARAGOZIC ACID C]
4 | 4 | – | C[C@H](/C=C/CCC(=O)O[C@@H]1[C@@H](O)[C@@]2(CC/C=C/[C@H](C)CCCc3ccccc3)O[C@H](C(=O)O)[C@@](O)(C(=O)O)[C@]1(C(=O)O)O2)CCCc1ccccc1 [ZARAGOZIC ACID E]
